Assay results as given in article PMC7531004, “Discovery of gramicidin A analogues with altered activities by multidimensional screening of a one-bead-one-compound library” (Nature Communications, 2020).
Where a SMILES comes first, the peptide text is derived from it. [ ]: non-standard residue; d: D form. The star is where a group is joined. NHCH2CH2OH = OCCN*; For = O=C*

Legend:
[1] = H+/Na+ transport assay of bead-derived peptides (one-point); type: biochemical; design: key: relative activity; mean of two control wells = 1.00; settings: bead-derived peptide solution, EYPC/EYPG LUVs;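 note: relative to parent gramicidin A activity set to 1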
How it was run: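 Values are normalized fluorescence, with Triton X-100 defining 100% and untreated LUVs 0%, and the two control wells averaging 1.00. Vesicles carried 1.0 mM pyranine and included egg yolk phosphatidylglycerol. Peptides were incubated with them 30 min at room temperature.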

[2] = cell viability/%
How it was run: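 P388 cells at 1 × 10^4 cells/mL (final) were exposed to library peptides (stocks diluted 250-fold in RPMI1640/10% FBS) for 92 h at 37 °C, 5% CO2. Viable cells were counted by WST-1/1-methoxy PMS (4 h), absorbance 415 nm, and expressed as cell viability (%).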

[3] = tested on: Streptococcus pyogenes SSI-9; experiment: Antibacterial activity assay of bead-derived peptides (three concentrations); type: cell-based; design: key: +++: inhibition by the 640-fold diluted peptide solution; ++: inhibition by the 160-fold diluted solution; +: inhibition by the 40-fold diluted solution; -: no inhibition; settings: S. pyogenes, bead-derived peptide solution, three concentrations
How it was run: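 Undiluted, 4-fold and 16-fold DMSO-diluted peptide stocks; S. pyogenes SSI-9, 2 × 10^5 CFU, cation-adjusted MHB (50 mg/L Ca2+, 25 mg/L Mg2+) + 5% laked horse blood; 37 °C, 18 h; readout = cell pellet visible or not.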

Structure (SMILES) | H+/Na+ transport activity normalized against the value of 1 (1.00) [1] | viability [2] | antibacterial activity [3]
CNC(=O)C[C@@H](NC(=O)[C@H](C)NC(=O)[C@H](NC(=O)[C@H](C)NC(=O)CNC(=O)[C@@H](NC=O)C(C)C)C(C)C)C(=O)N[C@H](C(=O)N[C@@H](C(=O)N[C@@H](Cc1c[nH]c2ccccc12)C(=O)N[C@@H](C(=O)N[C@@H](Cc1c[nH]c2ccccc12)C(=O)N[C@H](CC(C)C)C(=O)N[C@@H](Cc1c[nH]c2ccccc12)C(=O)N[C@H](CC(C)C)C(=O)N[C@@H](Cc1c[nH]c2ccccc12)C(=O)NCCO)C(C)C)C(C)C)C(C)C [compound 5211] (For-VGA[dV]A[dD](NHMe)V[dV]W[dV]W[dL]W[dL]W-NHCH2CH2OH) | 1.05 | 100% | -
CC(C)C[C@@H](NC(=O)[C@H](Cc1c[nH]c2ccccc12)NC(=O)[C@H](NC(=O)[C@@H](NC(=O)[C@H](NC(=O)[C@H](C)NC(=O)[C@H](NC(=O)[C@H](C)NC(=O)CNC(=O)[C@@H](NC=O)C(C)C)[C@H](C)O)C(C)C)C(C)C)C(C)C)C(=O)N[C@@H](Cc1c[nH]c2ccccc12)C(=O)N[C@H](CC(C)C)C(=O)N[C@@H](Cc1c[nH]c2ccccc12)C(=O)N[C@@H](C(=O)N[C@@H](Cc1c[nH]c2ccccc12)C(=O)NCCO)C(C)C [compound 4452] (For-VGA[dT]A[dV]V[dV]W[dL]W[dL]W[dV]W-NHCH2CH2OH) | 1.30 | 100% | -
CC(C)C[C@@H](NC(=O)[C@H](C)NC(=O)CNC(=O)[C@@H](NC=O)C(C)C)C(=O)N[C@@H](C)C(=O)N[C@H](CC(C)C)C(=O)N[C@H](C(=O)N[C@H](CC(C)C)C(=O)N[C@@H](Cc1c[nH]c2ccccc12)C(=O)N[C@@H](C(=O)N[C@@H](Cc1c[nH]c2ccccc12)C(=O)N[C@@H](C(=O)N[C@@H](Cc1c[nH]c2ccccc12)C(=O)N[C@H](CC(C)C)C(=O)N[C@@H](Cc1c[nH]c2ccccc12)C(=O)NCCO)C(C)C)[C@H](C)O)C(C)C [compound 196] (For-VGA[dL]A[dL]V[dL]W[dT]W[dV]W[dL]W-NHCH2CH2OH) | 1.06 | 100% | -
CC(C)C[C@@H](NC(=O)[C@H](C)NC(=O)[C@H](NC(=O)[C@H](C)NC(=O)CNC(=O)[C@@H](NC=O)C(C)C)C(C)C)C(=O)N[C@H](C(=O)N[C@@H](C(=O)N[C@@H](Cc1c[nH]c2ccccc12)C(=O)N[C@H](CC(C)C)C(=O)N[C@@H](Cc1c[nH]c2ccccc12)C(=O)N[C@@H](C(=O)N[C@@H](Cc1c[nH]c2ccccc12)C(=O)N[C@@H](C(=O)N[C@@H](Cc1c[nH]c2ccccc12)C(=O)NCCO)[C@H](C)O)[C@H](C)O)C(C)C)C(C)C [compound 13040] (For-VGA[dV]A[dL]V[dV]W[dL]W[dT]W[dT]W-NHCH2CH2OH) | 1.01 | 100% | -
CNC(=O)C[C@@H](NC(=O)[C@H](C)NC(=O)[C@H](NC(=O)[C@H](C)NC(=O)CNC(=O)[C@@H](NC=O)C(C)C)C(C)C)C(=O)N[C@H](C(=O)N[C@H](CC(C)C)C(=O)N[C@@H](Cc1c[nH]c2ccccc12)C(=O)N[C@@H](C(=O)N[C@@H](Cc1c[nH]c2ccccc12)C(=O)N[C@@H](C(=O)N[C@@H](Cc1c[nH]c2ccccc12)C(=O)N[C@@H](C(=O)N[C@@H](Cc1c[nH]c2ccccc12)C(=O)NCCO)C(C)C)C(C)C)C(C)C)C(C)C [compound 13148] (For-VGA[dV]A[dD](NHMe)V[dL]W[dV]W[dV]W[dV]W-NHCH2CH2OH) | 1.03 | 93.6% | -
CC(C)C[C@@H](NC(=O)[C@H](C)NC(=O)CNC(=O)[C@@H](NC=O)C(C)C)C(=O)N[C@@H](C)C(=O)N[C@H](CC(C)C)C(=O)N[C@H](C(=O)N[C@H](CC(C)C)C(=O)N[C@@H](Cc1c[nH]c2ccccc12)C(=O)N[C@@H](C(=O)N[C@@H](Cc1c[nH]c2ccccc12)C(=O)N[C@H](CC(C)C)C(=O)N[C@@H](Cc1c[nH]c2ccccc12)C(=O)N[C@H](CC(C)C)C(=O)N[C@@H](Cc1c[nH]c2ccccc12)C(=O)NCCO)C(C)C)C(C)C [compound 2828] (For-VGA[dL]A[dL]V[dL]W[dV]W[dL]W[dL]W-NHCH2CH2OH) | 1.15 | 2.8% | -
CC(C)[C@H](NC=O)C(=O)NCC(=O)N[C@@H](C)C(=O)N[C@@H](C(=O)N[C@@H](C)C(=O)N[C@@H](C(=O)N[C@H](C(=O)N[C@@H](C(=O)N[C@@H](Cc1c[nH]c2ccccc12)C(=O)N[C@@H](C(=O)N[C@@H](Cc1c[nH]c2ccccc12)C(=O)N[C@@H](C(=O)N[C@@H](Cc1c[nH]c2ccccc12)C(=O)N[C@@H](C(=O)N[C@@H](Cc1c[nH]c2ccccc12)C(=O)NCCO)[C@H](C)O)C(C)C)C(C)C)C(C)C)C(C)C)C(C)C)C(C)C [compound 1983] (For-VGA[dV]A[dV]V[dV]W[dV]W[dV]W[dT]W-NHCH2CH2OH) | 1.00 | 100% | -
CC(C)C[C@@H](NC(=O)[C@H](C)NC(=O)[C@H](NC(=O)[C@H](C)NC(=O)CNC(=O)[C@@H](NC=O)C(C)C)[C@H](C)O)C(=O)N[C@H](C(=O)N[C@H](CC(C)C)C(=O)N[C@@H](Cc1c[nH]c2ccccc12)C(=O)N[C@@H](C(=O)N[C@@H](Cc1c[nH]c2ccccc12)C(=O)N[C@@H](C(=O)N[C@@H](Cc1c[nH]c2ccccc12)C(=O)N[C@@H](C(=O)N[C@@H](Cc1c[nH]c2ccccc12)C(=O)NCCO)C(C)C)C(C)C)[C@H](C)O)C(C)C [compound 2139] (For-VGA[dT]A[dL]V[dL]W[dT]W[dV]W[dV]W-NHCH2CH2OH) | 1.05 | 100% | -
CC(C)C[C@@H](NC(=O)[C@H](C)NC(=O)CNC(=O)[C@@H](NC=O)C(C)C)C(=O)N[C@@H](C)C(=O)N[C@H](CC(C)C)C(=O)N[C@H](C(=O)N[C@@H](C(=O)N[C@@H](Cc1c[nH]c2ccccc12)C(=O)N[C@@H](C(=O)N[C@@H](Cc1c[nH]c2ccccc12)C(=O)N[C@H](CC(C)C)C(=O)N[C@@H](Cc1c[nH]c2ccccc12)C(=O)N[C@@H](C(=O)N[C@@H](Cc1c[nH]c2ccccc12)C(=O)NCCO)C(C)C)C(C)C)[C@H](C)O)C(C)C [compound 8043] (For-VGA[dL]A[dL]V[dT]W[dV]W[dL]W[dV]W-NHCH2CH2OH) | 1.04 | 100% | -
CC(C)C[C@@H](NC(=O)[C@H](C)NC(=O)CNC(=O)[C@@H](NC=O)C(C)C)C(=O)N[C@@H](C)C(=O)N[C@H](CC(C)C)C(=O)N[C@H](C(=O)N[C@@H](C(=O)N[C@@H](Cc1c[nH]c2ccccc12)C(=O)N[C@H](CC(C)C)C(=O)N[C@@H](Cc1c[nH]c2ccccc12)C(=O)N[C@@H](C(=O)N[C@@H](Cc1c[nH]c2ccccc12)C(=O)N[C@@H](C(=O)N[C@@H](Cc1c[nH]c2ccccc12)C(=O)NCCO)C(C)C)[C@H](C)O)C(C)C)C(C)C [compound 65] (For-VGA[dL]A[dL]V[dV]W[dL]W[dT]W[dV]W-NHCH2CH2OH) | 1.08 | 100% | +
CC(C)C[C@@H](NC(=O)[C@H](C)NC(=O)[C@H](NC(=O)[C@H](C)NC(=O)CNC(=O)[C@@H](NC=O)C(C)C)C(C)C)C(=O)N[C@H](C(=O)N[C@H](CC(C)C)C(=O)N[C@@H](Cc1c[nH]c2ccccc12)C(=O)N[C@@H](C(=O)N[C@@H](Cc1c[nH]c2ccccc12)C(=O)N[C@H](CC(C)C)C(=O)N[C@@H](Cc1c[nH]c2ccccc12)C(=O)N[C@@H](C(=O)N[C@@H](Cc1c[nH]c2ccccc12)C(=O)NCCO)[C@H](C)O)C(C)C)C(C)C [compound 2895] (For-VGA[dV]A[dL]V[dL]W[dV]W[dL]W[dT]W-NHCH2CH2OH) | 1.06 | 95.1% | -
CC(C)C[C@@H](NC(=O)[C@H](C)NC(=O)[C@H](NC(=O)[C@H](C)NC(=O)CNC(=O)[C@@H](NC=O)C(C)C)C(C)C)C(=O)N[C@H](C(=O)N[C@@H](C(=O)N[C@@H](Cc1c[nH]c2ccccc12)C(=O)N[C@H](CC(C)C)C(=O)N[C@@H](Cc1c[nH]c2ccccc12)C(=O)N[C@@H](C(=O)N[C@@H](Cc1c[nH]c2ccccc12)C(=O)N[C@@H](C(=O)N[C@@H](Cc1c[nH]c2ccccc12)C(=O)NCCO)[C@H](C)O)C(C)C)[C@H](C)O)C(C)C [compound 3328] (For-VGA[dV]A[dL]V[dT]W[dL]W[dV]W[dT]W-NHCH2CH2OH) | 1.08 | 100% | -
CC(C)C[C@@H](NC(=O)[C@H](C)NC(=O)CNC(=O)[C@@H](NC=O)C(C)C)C(=O)N[C@@H](C)C(=O)N[C@H](CC(C)C)C(=O)N[C@H](C(=O)N[C@@H](C(=O)N[C@@H](Cc1c[nH]c2ccccc12)C(=O)N[C@H](CC(C)C)C(=O)N[C@@H](Cc1c[nH]c2ccccc12)C(=O)N[C@@H](C(=O)N[C@@H](Cc1c[nH]c2ccccc12)C(=O)N[C@H](CC(C)C)C(=O)N[C@@H](Cc1c[nH]c2ccccc12)C(=O)NCCO)C(C)C)C(C)C)C(C)C [compound 11305] (For-VGA[dL]A[dL]V[dV]W[dL]W[dV]W[dL]W-NHCH2CH2OH) | 1.26 | 15.5% | +
